Test results reported in PMC9704499 (European journal of medicinal chemistry, 2021).

Test system: Tau0N4R-TM-tGFP U2OS cells
Test: Tau phosphorylation
Settings: 25–100 μM, 6 hrs

## c1ccc(CNc2nc(Nc3cc(C4CC4)[nH]n3)c3sccc3n2)cc1 [Compound 4, N2-benzyl-N4-(5-cyclopropyl-1H-pyrazol-3-yl)thieno[3,2-d]pyrimidine-2,4-diamine]
  cytotoxicity in bundle formation assay: cytotoxicity effects started to appear
